Laboratory results taken from patent EP2276483B1, “SOLID FORMS COMPRISING (+)-2-[1-(3-ETHOXY-4-METHOXYPHENYL)-2-METHYLSULFONYLETHYL]-4-ACETYLAMINOISOINDOLINE-1,3-DIONE, COMPOSITIONS THEREOF, AND USES THEREOF” (CELGENE CORPORATION, priority 2008, dated 2009).

Tests used:
[1] = Interconversion Studies of solid forms; format: physicochemical; conditions: EQ in acetone:ethanol (1:1) at 25 °C; slurry agitated at least 2 days
Method: Interconversion Studies. Interconversion experiments were performed by making slurries of a solid form in a saturated solvent. The slurries were agitated for at least 2 days at about 25 °C. The saturated solution was removed by filtration and the solid was dried in the air.

[2] = Hygroscopicity studies (DVS moisture sorption/desorption); format: physicochemical; conditions: for mass change of the starting mass of the sample (moisture sorption): RH increased from about 0% to about 95% RH; for solid-state transformation as a result of DVS analysis (XRPD): after full adsorption/desorption cycle, about 0% to about 95% RH, about 25 °C
Method: Hygroscopicity studies. The hygroscopicity of various solid forms was studied using a Surface Measurement Systems DVS instrument. Typically a sample size of between about 10-50 mg was loaded into the DVS instrument sample pan and the sample was analyzed on a DVS automated sorption analyzer at about 25 °C. The relative humidity was increased in increments of about 10% from about 0% to about 95% RH: The relative humidity was then decreased in a similar manner to accomplish a full adsorption/desorption cycle. The mass was recorded at periodic intervals throughout the experiment.
Hygroscopicity Studies. […] Table 6. Solubility Study on Form B

SMILES | Analysis by XRPD (resulting form) [1] | mass change of the starting mass of the sample (moisture sorption) [2] | solid-state transformation as a result of DVS analysis (XRPD) [2]
CCOc1cc(C(CS(C)(=O)=O)N2C(=O)c3cccc(NC(C)=O)c3C2=O)ccc1OC (single isomer, unassigned; (+)) [Form G, (+)-2-[1-(3-ethoxy-4-methoxyphenyl)-2-methylsulfonylethyl]-4-acetylaminoisoindoline-1,3-dione] | Form B | about 0.4% | none of the forms analyzed underwent substantial solid-state transformation
CCOc1cc(C(CS(C)(=O)=O)N2C(=O)c3cccc(NC(C)=O)c3C2=O)ccc1OC (single isomer, unassigned; (+)) [Form E, (+)-2-[1-(3-ethoxy-4-methoxyphenyl)-2-methylsulfonylethyl]-4-acetylaminoisoindoline-1,3-dione] | Form B | about 5.1% | none of the forms analyzed underwent substantial solid-state transformation
CCOc1cc(C(CS(C)(=O)=O)N2C(=O)c3cccc(NC(C)=O)c3C2=O)ccc1OC (single isomer, unassigned; (+)) [Form F, (+)-2-[1-(3-ethoxy-4-methoxyphenyl)-2-methylsulfonylethyl]-4-acetylaminoisoindoline-1,3-dione] | Form F | about 0.2% | none of the forms analyzed underwent substantial solid-state transformation
